{"source": "ChEMBL document CHEMBL1129930", "about": "“Analogues of methotrexate in rheumatoid arthritis. 2. Effects of 5-deazaaminopterin, 5,10-dideazaaminopterin, and analogues on type II collagen-induced arthritis in mice” (J Med Chem, 1997)", "key": {"[1]": {"system": "Mus musculus", "experiment": "Tested for antiinflammatory activity on mouse type II collagen arthritis as Paw swelling of all animals in each group on day 30 at intraperitoneal dose of 0.38 mg/kg", "assay_type": "functional"}, "[2]": {"system": "Mus musculus", "experiment": "Incidence of disease (mouse type II collagen) was scored as the percentage of animals within each experimental group that exhibited joint or limb inflammation on day 37 at intraperitoneal dose of 0.75 mg/kg", "assay_type": "functional"}, "[3]": {"system": "Mus musculus", "experiment": "Incidence of disease (mouse type II collagen) was scored as the percentage of animals within each experimental group that exhibited joint or limb inflammation on day 23 at intraperitoneal dose of 0.38 mg/kg", "assay_type": "functional"}, "[4]": {"system": "Mus musculus", "experiment": "Incidence of disease (mouse type II collagen) was scored as the percentage of animals within each experimental group that exhibited joint or limb inflammation on day 44 at intraperitoneal dose of 6 mg/kg (1 animal died)", "assay_type": "functional"}, "[5]": {"system": "Mus musculus", "experiment": "Incidence of disease (mouse type II collagen) was scored as the percentage of animals within each experimental group that exhibited joint or limb inflammation on day 44 at intraperitoneal dose of 1.5 mg/kg", "assay_type": "functional"}, "[6]": {"system": "Mus musculus", "experiment": "Incidence of disease (mouse type II collagen) was scored as the percentage of animals within each experimental group that exhibited joint or limb inflammation on day 37 at intraperitoneal dose of 3 mg/kg", "assay_type": "functional"}, "[7]": {"system": "Mus musculus", "experiment": "Incidence of disease (mouse type II collagen) was scored as the percentage of animals within each experimental group that exhibited joint or limb inflammation on day 30 at intraperitoneal dose of 6 mg/kg (1 animal died)", "assay_type": "functional"}, "[8]": {"system": "Mus musculus", "experiment": "Incidence of disease (mouse type II collagen) was scored as the percentage of animals within each experimental group that exhibited joint or limb inflammation on day 37 at intraperitoneal dose of 1.5 mg/kg", "assay_type": "functional"}, "[9]": {"system": "Mus musculus", "experiment": "Tested for antiinflammatory activity on mouse type II collagen arthritis as Paw swelling of all animals in each group on day 37 at intraperitoneal dose of 0.75 mg/kg", "assay_type": "functional"}, "[10]": {"system": "Mus musculus", "experiment": "Incidence of disease (mouse type II collagen) was scored as the percentage of animals within each experimental group that exhibited joint or limb inflammation on day 44 at intraperitoneal dose of 0.75 mg/kg", "assay_type": "functional"}, "[11]": {"system": "Mus musculus", "experiment": "Tested for antiinflammatory activity on mouse type II collagen arthritis as Paw swelling of all animals in each group on day 23 at intraperitoneal dose of 6 mg/kg", "assay_type": "functional"}, "[12]": {"system": "Mus musculus", "experiment": "Incidence of disease (mouse type II collagen) was scored as the percentage of animals within each experimental group that exhibited joint or limb inflammation on day 23 at intraperitoneal dose of 6 mg/kg (1 animal died)", "assay_type": "functional"}, "[13]": {"system": "Mus musculus", "experiment": "Tested for antiinflammatory activity on mouse type II collagen arthritis as Paw swelling of all animals in each group on day 30 at intraperitoneal dose of 6 mg/kg", "assay_type": "functional"}, "[14]": {"system": "Mus musculus", "experiment": "Incidence of disease (mouse type II collagen) was scored as the percentage of animals within each experimental group that exhibited joint or limb inflammation on day 23 at intraperitoneal dose of 3 mg/kg", "assay_type": "functional"}, "[15]": {"system": "Mus musculus", "experiment": "Tested for antiinflammatory activity on mouse type II collagen arthritis as Paw swelling of all animals in each group on day 44 at intraperitoneal dose of 0.38 mg/kg", "assay_type": "functional"}, "[16]": {"experiment": "Concentration required to inhibit the growth of chang liver cells.", "assay_type": "functional", "conditions": "Homo sapiens"}, "[17]": {"system": "Mus musculus", "experiment": "Tested for antiinflammatory activity on mouse type II collagen arthritis as Paw swelling of all animals in each group on day 37 at intraperitoneal dose of 1.5 mg/kg", "assay_type": "functional"}, "[18]": {"system": "Mus musculus", "experiment": "Incidence of disease (mouse type II collagen) was scored as the percentage of animals within each experimental group that exhibited joint or limb inflammation on day 30 at intraperitoneal dose of 1.5 mg/kg", "assay_type": "functional"}, "[19]": {"system": "Mus musculus", "experiment": "Tested for antiinflammatory activity on mouse type II collagen arthritis as Paw swelling of all animals in each group on day 44 at intraperitoneal dose of 0.75 mg/kg", "assay_type": "functional"}, "[20]": {"system": "Mus musculus", "experiment": "Tested for antiinflammatory activity on mouse type II collagen arthritis as Paw swelling of all animals in each group on day 37 at intraperitoneal dose of 3 mg/kg", "assay_type": "functional"}, "[21]": {"system": "Mus musculus", "experiment": "Tested for antiinflammatory activity on mouse type II collagen arthritis as Paw swelling of all animals in each group on day 30 at intraperitoneal dose of 0.75 mg/kg", "assay_type": "functional"}, "[22]": {"system": "Mus musculus", "experiment": "Tested for antiinflammatory activity on mouse type II collagen arthritis as Paw swelling of all animals in each group on day 37 at intraperitoneal dose of 0.38 mg/kg", "assay_type": "functional"}, "[23]": {"system": "Mus musculus", "experiment": "Incidence of disease (mouse type II collagen) was scored as the percentage of animals within each experimental group that exhibited joint or limb inflammation on day 44 at intraperitoneal dose of 3 mg/kg", "assay_type": "functional"}, "[24]": {"system": "Mus musculus", "experiment": "Tested for antiinflammatory activity on mouse type II collagen arthritis as Paw swelling of all animals in each group on day 44 at intraperitoneal dose of 6 mg/kg", "assay_type": "functional"}, "[25]": {"system": "Mus musculus", "experiment": "Tested for antiinflammatory activity on mouse type II collagen arthritis as Paw swelling of all animals in each group on day 44 at intraperitoneal dose of 3 mg/kg", "assay_type": "functional"}, "[26]": {"system": "Mus musculus", "experiment": "Tested for antiinflammatory activity on mouse type II collagen arthritis as Paw swelling of all animals in each group on day 23 at intraperitoneal dose of 0.75 mg/kg", "assay_type": "functional"}, "[27]": {"system": "Mus musculus", "experiment": "Tested for antiinflammatory activity on mouse type II collagen arthritis as Paw swelling of all animals in each group on day 37 at intraperitoneal dose of 6 mg/kg", "assay_type": "functional"}, "[28]": {"system": "Mus musculus", "experiment": "Incidence of disease (mouse type II collagen) was scored as the percentage of animals within each experimental group that exhibited joint or limb inflammation on day 30 at intraperitoneal dose of 0.75 mg/kg", "assay_type": "functional"}, "[29]": {"system": "Mus musculus", "experiment": "Incidence of disease (mouse type II collagen) was scored as the percentage of animals within each experimental group that exhibited joint or limb inflammation on day 23 at intraperitoneal dose of 0.75 mg/kg", "assay_type": "functional"}, "[30]": {"system": "Mus musculus", "experiment": "Incidence of disease (mouse type II collagen) was scored as the percentage of animals within each experimental group that exhibited joint or limb inflammation on day 37 at intraperitoneal dose of 6 mg/kg (1 animal died)", "assay_type": "functional"}, "[31]": {"system": "Mus musculus", "experiment": "Incidence of disease (mouse type II collagen) was scored as the percentage of animals within each experimental group that exhibited joint or limb inflammation on day 30 at intraperitoneal dose of 3 mg/kg", "assay_type": "functional"}, "[32]": {"system": "Mus musculus", "experiment": "Incidence of disease (mouse type II collagen) was scored as the percentage of animals within each experimental group that exhibited joint or limb inflammation on day 44 at intraperitoneal dose of 0.38 mg/kg", "assay_type": "functional"}, "[33]": {"system": "Mus musculus", "experiment": "Tested for antiinflammatory activity on mouse type II collagen arthritis as Paw swelling of all animals in each group on day 30 at intraperitoneal dose of 3 mg/kg", "assay_type": "functional"}, "[34]": {"system": "Mus musculus", "experiment": "Incidence of disease (mouse type II collagen) was scored as the percentage of animals within each experimental group that exhibited joint or limb inflammation on day 37 at intraperitoneal dose of 0.38 mg/kg", "assay_type": "functional"}, "[35]": {"system": "Mus musculus", "experiment": "Tested for antiinflammatory activity on mouse type II collagen arthritis as Paw swelling of all animals in each group on day 44 at intraperitoneal dose of 1.5 mg/kg", "assay_type": "functional"}, "[36]": {"system": "Mus musculus", "experiment": "Tested for antiinflammatory activity on mouse type II collagen arthritis as Paw swelling of all animals in each group on day 30 at intraperitoneal dose of 1.5 mg/kg", "assay_type": "functional"}, "[37]": {"system": "L1210", "experiment": "Concentration required to inhibit the growth of L1210 cells.", "assay_type": "functional, cell-based", "conditions": "Mus musculus"}, "[38]": {"system": "Mus musculus", "experiment": "Incidence of disease (mouse type II collagen) was scored as the percentage of animals within each experimental group that exhibited joint or limb inflammation on day 23 at intraperitoneal dose of 1.5 mg/kg", "assay_type": "functional"}, "[39]": {"system": "Mus musculus", "experiment": "Tested for antiinflammatory activity on mouse type II collagen arthritis as Paw swelling of all animals in each group on day 23 at intraperitoneal dose of 0.38 mg/kg", "assay_type": "functional"}, "[40]": {"system": "Mus musculus", "experiment": "Incidence of disease (mouse type II collagen) was scored as the percentage of animals within each experimental group that exhibited joint or limb inflammation on day 30 at intraperitoneal dose of 0.38 mg/kg", "assay_type": "functional"}}, "data": [{"smiles": "C=CCN(Cc1cnc2nc(N)nc(N)c2c1C)c1ccc(C(=O)NC(CCC(=O)O)C(=O)O)cc1", "note": "(stereo not given)", "values": [{"measurement": "Paw swelling", "setting": "[1]", "result": 2.17, "unit": "mm"}, {"measurement": "Animals", "setting": "[2]", "result": 38, "unit": "%"}, {"measurement": "Animals", "setting": "[3]", "result": 0, "unit": "%"}, {"measurement": "Animals", "setting": "[4]", "result": 0, "unit": "%"}, {"measurement": "Animals", "setting": "[5]", "result": 50, "unit": "%"}, {"measurement": "Animals", "setting": "[6]", "result": 0, "unit": "%"}, {"measurement": "Animals", "setting": "[7]", "result": 0, "unit": "%"}, {"measurement": "Animals", "setting": "[8]", "result": 25, "unit": "%"}, {"measurement": "Paw swelling", "setting": "[9]", "result": 2.33, "unit": "mm"}, {"measurement": "Animals", "setting": "[10]", "result": 50, "unit": "%"}, {"measurement": "Paw swelling", "setting": "[11]", "result": 2.09, "unit": "mm"}, {"measurement": "Animals", "setting": "[12]", "result": 0, "unit": "%"}, {"measurement": "Paw swelling", "setting": "[13]", "result": 2.1, "unit": "mm"}, {"measurement": "Animals", "setting": "[14]", "result": 0, "unit": "%"}, {"measurement": "Paw swelling", "setting": "[15]", "result": 2.39, "unit": "mm"}, {"measurement": "IC50", "setting": "[16]", "result": 30, "unit": "nM"}, {"measurement": "Paw swelling", "setting": "[17]", "result": 2.26, "unit": "mm"}, {"measurement": "Animals", "setting": "[18]", "result": 12, "unit": "%"}, {"measurement": "Paw swelling", "setting": "[19]", "result": 2.36, "unit": "mm"}, {"measurement": "Paw swelling", "setting": "[20]", "result": 2.14, "unit": "mm"}, {"measurement": "Paw swelling", "setting": "[21]", "result": 2.22, "unit": "mm"}, {"measurement": "Paw swelling", "setting": "[22]", "result": 2.3, "unit": "mm"}, {"measurement": "Animals", "setting": "[23]", "result": 0, "unit": "%"}, {"measurement": "Paw swelling", "setting": "[24]", "result": 2.13, "unit": "mm"}, {"measurement": "Paw swelling", "setting": "[25]", "result": 2.16, "unit": "mm"}, {"measurement": "Paw swelling", "setting": "[26]", "result": 2.17, "unit": "mm"}, {"measurement": "Paw swelling", "setting": "[27]", "result": 2.15, "unit": "mm"}, {"measurement": "Animals", "setting": "[28]", "result": 25, "unit": "%"}, {"measurement": "Animals", "setting": "[29]", "result": 0, "unit": "%"}, {"measurement": "Animals", "setting": "[30]", "result": 0, "unit": "%"}, {"measurement": "Animals", "setting": "[31]", "result": 0, "unit": "%"}, {"measurement": "Animals", "setting": "[32]", "result": 62, "unit": "%"}, {"measurement": "Paw swelling", "setting": "[33]", "result": 2.12, "unit": "mm"}, {"measurement": "Animals", "setting": "[34]", "result": 38, "unit": "%"}, {"measurement": "Paw swelling", "setting": "[35]", "result": 2.32, "unit": "mm"}, {"measurement": "Paw swelling", "setting": "[36]", "result": 2.24, "unit": "mm"}, {"measurement": "IC50", "setting": "[37]", "result": 3.4, "unit": "nM"}, {"measurement": "Animals", "setting": "[38]", "result": 0, "unit": "%"}, {"measurement": "Paw swelling", "setting": "[39]", "result": 2.17, "unit": "mm"}, {"measurement": "Animals", "setting": "[40]", "result": 0, "unit": "%"}]}]}
